Tests used:
Assay in all cases: Kinase profiling in a biochemical assay panel (mobility shift assays and ELISA), %-inhibition at 1 μM; selectivity entropy
[1] = target: panel of more than 300 wild-type and mutant kinases (313 kinase panel) (Homo sapiens, UniProt P06213); conditions: kinase INSR; compound at 1 μM
[2] = target: panel of more than 300 wild-type and mutant kinases (313 kinase panel) (Homo sapiens, UniProt O94804)
[3] = target: T1, panel of more than 300 wild-type and mutant kinases (313 kinase panel) (Homo sapiens, UniProt Q13163); conditions: kinase MAP2K5; compound at 1 μM
T1 sequence (Q13163 1-448): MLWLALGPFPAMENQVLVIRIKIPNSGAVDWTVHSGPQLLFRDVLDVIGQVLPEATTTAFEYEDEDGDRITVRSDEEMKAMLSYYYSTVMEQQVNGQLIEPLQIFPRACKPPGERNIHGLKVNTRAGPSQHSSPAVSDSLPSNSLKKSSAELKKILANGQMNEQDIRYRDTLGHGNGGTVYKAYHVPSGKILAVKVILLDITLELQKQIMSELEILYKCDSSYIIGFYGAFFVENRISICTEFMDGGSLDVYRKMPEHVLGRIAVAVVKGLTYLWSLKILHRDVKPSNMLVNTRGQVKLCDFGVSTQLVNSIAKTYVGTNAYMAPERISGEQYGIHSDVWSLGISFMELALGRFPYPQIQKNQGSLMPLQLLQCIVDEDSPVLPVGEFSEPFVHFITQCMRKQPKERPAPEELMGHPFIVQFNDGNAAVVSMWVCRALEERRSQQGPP

[4] = target: T2, panel of more than 300 wild-type and mutant kinases (313 kinase panel) (Homo sapiens, UniProt P51817); conditions: kinase PRKX; 1 μM
T2 sequence (P51817 1-358): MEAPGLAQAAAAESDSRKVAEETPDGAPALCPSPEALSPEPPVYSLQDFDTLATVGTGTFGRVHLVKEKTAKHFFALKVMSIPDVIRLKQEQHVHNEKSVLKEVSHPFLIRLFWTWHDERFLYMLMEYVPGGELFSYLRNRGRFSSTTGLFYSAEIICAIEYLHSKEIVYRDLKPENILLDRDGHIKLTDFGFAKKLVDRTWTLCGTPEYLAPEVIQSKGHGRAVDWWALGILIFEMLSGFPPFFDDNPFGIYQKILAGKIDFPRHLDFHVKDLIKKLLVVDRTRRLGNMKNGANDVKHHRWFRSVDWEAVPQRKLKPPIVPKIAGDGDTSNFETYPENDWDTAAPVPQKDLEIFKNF

[5] = target: panel of more than 300 wild-type and mutant kinases (313 kinase panel) (Homo sapiens, UniProt Q9UPE1); conditions: kinase MSSK1; 1 μM
[6] = target: panel of more than 300 wild-type and mutant kinases (313 kinase panel) (Homo sapiens, UniProt Q13233); conditions: kinase MAP3K1; compound at 1 μM
[7] = target: T3, panel of more than 300 wild-type and mutant kinases (313 kinase panel) (Homo sapiens, UniProt O14920); conditions: kinase IKKβ; compound at 1 μM
T3 sequence (O14920 1-756): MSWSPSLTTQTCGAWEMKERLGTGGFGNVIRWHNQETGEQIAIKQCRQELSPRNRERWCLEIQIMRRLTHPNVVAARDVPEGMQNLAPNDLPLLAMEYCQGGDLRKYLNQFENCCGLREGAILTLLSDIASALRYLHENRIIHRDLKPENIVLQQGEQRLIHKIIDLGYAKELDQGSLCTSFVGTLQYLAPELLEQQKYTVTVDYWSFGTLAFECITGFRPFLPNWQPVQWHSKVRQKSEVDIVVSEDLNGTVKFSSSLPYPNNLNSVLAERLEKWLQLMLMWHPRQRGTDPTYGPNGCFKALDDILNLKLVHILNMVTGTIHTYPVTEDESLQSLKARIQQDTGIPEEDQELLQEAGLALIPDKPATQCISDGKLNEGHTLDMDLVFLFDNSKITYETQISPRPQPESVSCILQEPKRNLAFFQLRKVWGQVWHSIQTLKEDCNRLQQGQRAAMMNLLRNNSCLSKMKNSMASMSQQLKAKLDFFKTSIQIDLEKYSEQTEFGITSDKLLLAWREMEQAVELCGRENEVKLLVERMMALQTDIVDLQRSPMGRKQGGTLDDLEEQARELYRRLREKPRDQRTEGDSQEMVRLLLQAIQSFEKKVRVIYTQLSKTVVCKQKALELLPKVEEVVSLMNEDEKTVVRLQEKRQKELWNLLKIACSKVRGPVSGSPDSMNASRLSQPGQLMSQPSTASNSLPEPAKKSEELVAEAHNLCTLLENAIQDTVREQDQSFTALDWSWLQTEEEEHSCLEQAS

Chain of panel of more than 300 wild-type and mutant kinases (313 kinase panel) (Homo sapiens, UniProt Q13233) (Q13233 whole entry, change not shown): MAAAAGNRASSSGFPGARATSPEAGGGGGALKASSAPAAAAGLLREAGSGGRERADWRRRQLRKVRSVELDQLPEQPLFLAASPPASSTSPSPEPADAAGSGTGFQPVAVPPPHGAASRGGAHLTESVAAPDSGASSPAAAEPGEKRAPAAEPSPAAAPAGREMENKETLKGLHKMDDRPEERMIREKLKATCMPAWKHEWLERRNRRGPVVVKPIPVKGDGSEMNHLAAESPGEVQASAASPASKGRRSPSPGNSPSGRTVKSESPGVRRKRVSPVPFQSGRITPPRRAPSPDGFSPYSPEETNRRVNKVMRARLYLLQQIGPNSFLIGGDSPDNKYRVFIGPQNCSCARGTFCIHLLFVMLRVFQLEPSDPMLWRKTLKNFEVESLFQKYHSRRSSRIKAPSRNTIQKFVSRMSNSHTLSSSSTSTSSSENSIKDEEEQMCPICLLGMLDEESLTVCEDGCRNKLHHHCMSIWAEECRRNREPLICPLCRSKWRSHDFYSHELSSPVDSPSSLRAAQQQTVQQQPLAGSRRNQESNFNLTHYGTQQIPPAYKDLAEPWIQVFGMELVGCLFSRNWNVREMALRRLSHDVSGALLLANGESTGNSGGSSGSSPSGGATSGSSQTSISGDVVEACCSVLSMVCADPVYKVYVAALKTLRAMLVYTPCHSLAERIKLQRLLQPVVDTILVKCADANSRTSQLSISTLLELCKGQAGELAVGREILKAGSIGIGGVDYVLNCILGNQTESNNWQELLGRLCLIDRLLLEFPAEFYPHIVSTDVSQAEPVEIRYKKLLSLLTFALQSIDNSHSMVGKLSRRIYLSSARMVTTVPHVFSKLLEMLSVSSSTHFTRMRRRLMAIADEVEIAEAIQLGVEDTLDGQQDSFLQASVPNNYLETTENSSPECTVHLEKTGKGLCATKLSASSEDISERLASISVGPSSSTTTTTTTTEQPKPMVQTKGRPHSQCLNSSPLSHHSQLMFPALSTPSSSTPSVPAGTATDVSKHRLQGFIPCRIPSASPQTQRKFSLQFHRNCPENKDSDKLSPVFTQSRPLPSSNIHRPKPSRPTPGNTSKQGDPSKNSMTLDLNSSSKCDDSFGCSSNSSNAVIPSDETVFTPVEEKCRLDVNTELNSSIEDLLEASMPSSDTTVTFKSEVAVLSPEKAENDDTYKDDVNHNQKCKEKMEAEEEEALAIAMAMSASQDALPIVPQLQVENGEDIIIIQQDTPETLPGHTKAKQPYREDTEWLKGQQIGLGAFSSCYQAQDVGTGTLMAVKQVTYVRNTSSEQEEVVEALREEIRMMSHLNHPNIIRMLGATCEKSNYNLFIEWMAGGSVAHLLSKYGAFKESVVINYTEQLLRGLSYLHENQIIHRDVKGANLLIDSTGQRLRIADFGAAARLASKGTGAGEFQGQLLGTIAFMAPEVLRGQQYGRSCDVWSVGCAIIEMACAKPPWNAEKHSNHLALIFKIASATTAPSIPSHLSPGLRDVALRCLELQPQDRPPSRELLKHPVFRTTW
Chain of panel of more than 300 wild-type and mutant kinases (313 kinase panel) (Homo sapiens, UniProt O94804) (O94804 whole entry, change not shown): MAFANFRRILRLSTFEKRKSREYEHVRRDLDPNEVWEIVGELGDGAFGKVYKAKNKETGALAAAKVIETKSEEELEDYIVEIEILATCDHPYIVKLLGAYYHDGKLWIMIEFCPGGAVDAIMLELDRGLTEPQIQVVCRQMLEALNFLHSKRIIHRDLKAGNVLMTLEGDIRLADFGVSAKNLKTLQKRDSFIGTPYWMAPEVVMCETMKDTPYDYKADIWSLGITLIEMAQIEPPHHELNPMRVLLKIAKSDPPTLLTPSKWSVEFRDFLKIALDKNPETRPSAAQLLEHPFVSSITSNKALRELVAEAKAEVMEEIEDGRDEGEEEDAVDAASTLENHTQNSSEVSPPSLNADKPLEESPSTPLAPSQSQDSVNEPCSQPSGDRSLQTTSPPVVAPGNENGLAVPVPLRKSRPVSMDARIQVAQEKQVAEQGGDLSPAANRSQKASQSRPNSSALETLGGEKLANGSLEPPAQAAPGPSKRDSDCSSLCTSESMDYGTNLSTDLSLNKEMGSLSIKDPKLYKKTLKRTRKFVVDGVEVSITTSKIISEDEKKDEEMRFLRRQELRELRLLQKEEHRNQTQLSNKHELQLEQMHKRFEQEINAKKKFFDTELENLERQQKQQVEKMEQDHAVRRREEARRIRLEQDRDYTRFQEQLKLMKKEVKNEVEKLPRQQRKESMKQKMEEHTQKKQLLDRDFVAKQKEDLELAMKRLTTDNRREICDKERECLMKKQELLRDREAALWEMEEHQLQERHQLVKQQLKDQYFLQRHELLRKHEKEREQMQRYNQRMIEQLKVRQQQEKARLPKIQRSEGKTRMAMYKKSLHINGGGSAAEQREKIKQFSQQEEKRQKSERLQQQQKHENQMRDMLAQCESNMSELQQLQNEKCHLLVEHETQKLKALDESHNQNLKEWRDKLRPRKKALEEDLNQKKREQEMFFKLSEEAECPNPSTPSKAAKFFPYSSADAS
Chain of panel of more than 300 wild-type and mutant kinases (313 kinase panel) (Homo sapiens, UniProt P06213) (P06213 28-1382, stated change not applied): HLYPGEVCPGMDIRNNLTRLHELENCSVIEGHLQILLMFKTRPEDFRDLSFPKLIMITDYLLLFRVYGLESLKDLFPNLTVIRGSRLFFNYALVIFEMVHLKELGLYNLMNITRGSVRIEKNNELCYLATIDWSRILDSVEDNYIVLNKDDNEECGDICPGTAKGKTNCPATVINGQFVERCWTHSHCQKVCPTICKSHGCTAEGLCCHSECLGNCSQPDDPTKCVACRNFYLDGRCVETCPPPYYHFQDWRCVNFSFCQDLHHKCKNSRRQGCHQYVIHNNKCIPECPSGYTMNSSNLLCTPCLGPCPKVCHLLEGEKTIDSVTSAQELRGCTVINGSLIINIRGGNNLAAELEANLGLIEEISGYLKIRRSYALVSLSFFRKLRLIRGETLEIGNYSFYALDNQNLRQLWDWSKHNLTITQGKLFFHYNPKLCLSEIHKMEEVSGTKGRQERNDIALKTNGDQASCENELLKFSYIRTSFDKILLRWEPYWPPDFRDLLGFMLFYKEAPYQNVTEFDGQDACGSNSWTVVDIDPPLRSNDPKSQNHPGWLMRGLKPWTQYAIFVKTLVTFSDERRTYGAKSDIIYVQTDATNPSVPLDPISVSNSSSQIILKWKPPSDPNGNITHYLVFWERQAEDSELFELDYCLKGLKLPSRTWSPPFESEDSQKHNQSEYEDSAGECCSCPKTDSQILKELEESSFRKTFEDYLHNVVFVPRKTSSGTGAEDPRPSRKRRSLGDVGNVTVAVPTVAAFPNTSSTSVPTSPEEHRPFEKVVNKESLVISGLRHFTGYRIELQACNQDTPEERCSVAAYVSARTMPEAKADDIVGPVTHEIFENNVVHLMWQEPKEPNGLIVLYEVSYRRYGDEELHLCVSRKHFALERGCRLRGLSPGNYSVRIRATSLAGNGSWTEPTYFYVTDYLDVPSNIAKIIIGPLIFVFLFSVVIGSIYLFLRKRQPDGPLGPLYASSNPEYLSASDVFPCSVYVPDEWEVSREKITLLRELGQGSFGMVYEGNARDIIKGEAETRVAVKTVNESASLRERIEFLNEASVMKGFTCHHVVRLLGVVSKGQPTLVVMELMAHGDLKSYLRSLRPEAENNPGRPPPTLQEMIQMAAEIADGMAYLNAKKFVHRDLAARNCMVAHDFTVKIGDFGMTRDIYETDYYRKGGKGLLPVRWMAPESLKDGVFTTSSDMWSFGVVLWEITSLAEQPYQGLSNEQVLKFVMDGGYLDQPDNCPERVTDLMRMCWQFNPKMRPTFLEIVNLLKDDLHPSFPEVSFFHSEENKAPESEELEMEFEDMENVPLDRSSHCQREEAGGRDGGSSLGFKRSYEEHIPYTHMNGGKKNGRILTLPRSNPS

Compound | %-inhibition of INSR [1] [%] | %-inhibition of LOK ([2]; kinase LOK, compound at 1 μM) [%] | %-inhibition of MAP2K5 [3] [%] | %-inhibition of PRKX [4] [%] | %-inhibition of MSSK1 [5] [%] | %-inhibition of MAP3K1 [6] [%] | %-inhibition of IKKβ [7] [%] | %-inhibition of LOK ([2]; 1 µM) [%]
CO[C@H]1C[C@@H]2CC[C@@H](C)[C@@](O)(O2)C(=O)C(=O)N2CCCC[C@H]2C(=O)O[C@H]([C@H](C)C[C@@H]2CC[C@@H](OC(=O)C(C)(CO)CO)[C@H](OC)C2)CC(=O)[C@H](C)/C=C(\C)[C@@H](O)[C@@H](OC)C(=O)[C@H](C)C[C@H](C)/C=C/C=C/C=C/1C [temsirolimus] | -4 | -5 | -1.51 | -1.9 | -8 | 6 | -4.44 | –
Cc1cn(-c2cc(NC(=O)c3ccc(C)c(Nc4nccc(-c5cccnc5)n4)c3)cc(C(F)(F)F)c2)cn1 [nilotinib] | -8 | – | -7.56 | 6 | -17 | -18 | -1.78 | -18
CS(=O)(=O)CCNCc1ccc(-c2ccc3ncnc(Nc4ccc(OCc5cccc(F)c5)c(Cl)c4)c3c2)o1 [lapatinib] | -1.26 | 17 | 1.63 | 0.493 | -3 | 1.76 | 0.904 | –

Reference: paper PMC3961306, “Comparison of the Cancer Gene Targeting and Biochemical Selectivities of All Targeted Kinase Inhibitors Approved for Clinical Use” (PLoS ONE, 2014)
